# Assay results as given in PMC8087158 (Angewandte Chemie (International ed. in English), 2021).
# Key:
# [1] = system: Pf Dd2β5A49S; assay: Growth inhibition of proteasome inhibitor-resistant Pf Dd2β5A49S; assay type: cell-based, Plasmodium falciparum; conditions: relative to Dd2
# [2] = system: artemisinin-resistant Pf Cam3.I^R539T; assay: Modified ring-stage survival assay, combination with DHA, isobologram; assay type: cell-based, Plasmodium falciparum; conditions: 3-h pulse of DHA, continuous TDI-8304 for further 69 h; parasitemia at 72 h
# [3] = system: Pf strain 4884 (ART-resistant); assay: Growth inhibition of Pf strain 4884; assay type: cell-based, Plasmodium falciparum
# [4] = system: Pf strain 3663 (ART-sensitive); assay: Growth inhibition of Pf strain 3663; assay type: cell-based, Plasmodium falciparum
# [5] = system: artemisinin-sensitive Pf Cam3.I^Rev; assay: Modified ring-stage survival assay, combination with DHA, isobologram; assay type: cell-based, Plasmodium falciparum; conditions: 3-h pulse of DHA, continuous TDI-8304 for further 69 h; parasitemia at 72 h
# [6] = system: P. falciparum lab strain Dd2; assay: Growth inhibition of Pf Dd2; assay type: cell-based, Plasmodium falciparum
# [7] = system: Pf strain HB3 (chloroquine-sensitive); assay: Growth inhibition of Pf strain HB3; assay type: cell-based, Plasmodium falciparum
# [8] = system: Pf20S β5; assay: Blocking of MV151 labelling of Pf20S β5; assay type: binding, Plasmodium falciparum; conditions: with or without WLW-VS
# [9] = system: P. falciparum Pf3D7^0087/N9; assay: Humanized mouse model of Pf infection, parasitemia; assay type: in vivo, NOD-SCID IL-2R-null mice transfused with human erythrocytes; conditions: s.c. 100 mg/kg b.i.d., days 3 – 6 post infection
# [10] = system: P. falciparum strain Pf 3D7; assay: Growth inhibition of erythrocytic stage P. falciparum Pf 3D7; assay type: cell-based, Plasmodium falciparum
# [11] = system: polyubiquitinated proteins in Pf trophozoites; assay: Accumulation of polyubiquitinated proteins in parasites; assay type: cell-based, Plasmodium falciparum; conditions: 6-hour exposure, 1 μM
# [12] = system: Pf20S β5; assay: Hydrolysis of suc-LLVY-AMC by Pf20S, time courses of inhibition; assay type: biochemical, Plasmodium falciparum
# [13] = system: Pf Dd2β6A117D; assay: Growth inhibition of proteasome inhibitor-resistant Pf Dd2β6A117D; assay type: cell-based, Plasmodium falciparum; conditions: relative to Dd2
compound,measurement,setting,value
O=C(NC1CCCC1)[C@@H]1CCCCOc2cccc(c2)C[C@H](N2CCCC2=O)C(=O)N[C@@H](CCN2CCOCC2)C(=O)N1 [TDI-8304],EC50 against Dd2β5A49S compared with Dd2,[1],comparable
same,Interaction with DHA (isobologram),[2],synergistic killing
same,Activity against Pf strain 4884,[3],comparable activity
same,Activity against Pf strain 3663,[4],comparable activity
same,Interaction with DHA (isobologram),[5],synergistic killing
same,Potency against P. falciparum lab strain Dd2,[6],potent
same,Activity against Pf strain HB3,[7],comparable activity
same,Blocking of labelling of Pf20S β5 by MV151,[8],dose-dependently blocked labelling
same,"Reduction of parasitemia, one mouse",[9],2 log10
same,"Potency (EC50) against P. falciparum Pf 3D7, in words",[10],highly potent
same,EC90,"[10]; strain not given, used as exposure threshold",29 nM
same,Accumulation of polyubiquitinated proteins,[11],accumulation of polyubiquitinated proteins
same,t1/2 half-life for the Pf20S:TDI-8304 complex,[12],14.4 min
same,Inhibition modality,[12]; induced-fit mechanism,time-dependent inhibition
same,Reduction in potency against Dd2β6A117D,[13],~ 18 fold
